Test results published in ChEMBL document CHEMBL1201862, “PubChem BioAssay data set” (2004).
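How tested: cells in 96-well plates exposed to compound for 48 hours at five concentrations. Here, GI50 denotes the concentration required for 50% inhibition of growth.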 The source made the active and inactive calls. Cut-off read from the data, not from the text of the source: active = GI50 up to about 1.1 µM and inactive = higher.

Key:
Experiment in all cases: growth of human tumour cells (NCI), 48 h
[1] = test system: 786-0
[2] = test system: A498
[3] = test system: A549
[4] = test system: ACHN
[5] = test system: BT-549
[6] = test system: CAKI-1
[7] = test system: CCRF-CEM
[8] = test system: COLO 205
[9] = test system: DU-145
[10] = test system: EKVX
[11] = test system: HCC 2998
[12] = test system: HCT-116
[13] = test system: HCT-15
[14] = test system: HL-60
[15] = test system: HOP-62
[16] = test system: HOP-92
[17] = test system: HT-29
[18] = test system: Hs-578T
[19] = test system: IGROV-1
[20] = test system: K562
[21] = test system: KM12
[22] = test system: LOX IMVI
[23] = test system: M14
[24] = test system: MCF7
[25] = test system: MDA-MB-231
[26] = test system: MDA-MB-435
[27] = test system: MDA-N
[28] = test system: Malme-3M
[29] = test system: NCI-H226
[30] = test system: NCI-H23
[31] = test system: NCI-H460
[32] = test system: NCI-H522
[33] = test system: NCI/ADR-RES
[34] = test system: OVCAR-3
[35] = test system: OVCAR-4
[36] = test system: OVCAR-5
[37] = test system: OVCAR-8
[38] = test system: PC-3
[39] = test system: RPMI-8226
[40] = test system: RXF 393
[41] = test system: SF-268
[42] = test system: SF-295
[43] = test system: SK-MEL-28
[44] = test system: SK-MEL-2
[45] = test system: SK-MEL-5
[46] = test system: SK-OV-3
[47] = test system: SN12C
[48] = test system: SNB-19
[49] = test system: SNB-75
[50] = test system: SR
[51] = test system: SW-620
[52] = test system: T47D
[53] = test system: TK-10
[54] = test system: U-251
[55] = test system: UACC-257
[56] = test system: UACC-62
[57] = test system: UO-31

`Cn1cnc([N+](=O)[O-])c1SCC(=O)O` was tested, and the GI50 [1] was > 100 µM (inactive), the GI50 [2] was > 100 µM (inactive) and the GI50 [3] was > 100 µM (inactive). For the same compound, the GI50 [4] was > 100 µM (inactive), the GI50 [5] was > 100 µM (inactive) and the GI50 [6] was > 100 µM (inactive). For the same compound, the GI50 [7] was > 100 µM (inactive), the GI50 [8] was > 100 µM (inactive) and the GI50 [9] was > 100 µM (inactive). For the same compound, the GI50 [10] was > 100 µM (inactive), the GI50 [11] was > 100 µM (inactive) and the GI50 [12] was > 100 µM (inactive). For the same compound, the GI50 [13] was > 100 µM, the GI50 [14] was > 100 µM (inactive) and the GI50 [15] was > 100 µM (inactive). For the same compound, the GI50 [16] was > 100 µM (inactive), the GI50 [17] was > 100 µM (inactive) and the GI50 [18] was > 100 µM (inactive). For the same compound, the GI50 [19] was > 100 µM (inactive), the GI50 [20] was > 100 µM (inactive) and the GI50 [21] was > 100 µM (inactive). The GI50 [22] was > 100 µM (inactive), the GI50 [23] was > 100 µM (inactive) and the GI50 [24] was > 100 µM (inactive). The GI50 [25] was > 100 µM (inactive), the GI50 [26] was > 100 µM (inactive) and the GI50 [27] was > 100 µM (inactive). For the same compound, the GI50 [28] was > 100 µM (inactive), the GI50 [29] was > 100 µM (inactive) and the GI50 [30] was > 100 µM (inactive). For the same compound, the GI50 [31] was > 100 µM (inactive), the GI50 [32] was > 100 µM (inactive) and the GI50 [33] was > 100 µM (inactive). The GI50 [34] was > 100 µM (inactive), the GI50 [35] was > 100 µM (inactive) and the GI50 [36] was > 100 µM (inactive). The GI50 [37] was > 100 µM (inactive), the GI50 [38] was > 100 µM (inactive) and the GI50 [39] was > 100 µM (inactive). For the same compound, the GI50 [40] was > 100 µM (inactive), the GI50 [41] was > 100 µM (inactive) and the GI50 [42] was > 100 µM (inactive). The GI50 [43] was > 100 µM (inactive), the GI50 [44] was > 100 µM (inactive) and the GI50 [45] was > 100 µM (inactive). For the same compound, the GI50 [46] was > 100 µM (inactive), the GI50 [47] was > 100 µM (inactive) and the GI50 [48] was > 100 µM (inactive). The GI50 [49] was > 100 µM (inactive), the GI50 [50] was > 100 µM (inactive) and the GI50 [51] was > 100 µM (inactive). For the same compound, the GI50 [52] was > 100 µM (inactive), the GI50 [53] was > 100 µM (inactive) and the GI50 [54] was > 100 µM (inactive). The GI50 [55] was > 100 µM (inactive), the GI50 [56] was > 100 µM (inactive) and the GI50 [57] was > 100 µM (inactive).
